Assay results published in paper PMC9960274, “Peptidic Inhibitors and a Fluorescent Probe for the Selective Inhibition and Labelling of Factor XIIIa Transglutaminase” (Molecules, 2023).
“Also recorded” adds a separate entry of the source. Like-named read-outs stand apart in the source and are kept apart here. Starred links: 1 amine or outer side, 2 acyl side, 3 side chain; linkers in the order of their positions; H or OH if unused. Non-standard residues stand in square brackets, D forms with d. Residues, ends and D or L forms follow the SMILES beside them. *: point of attachment. RhodamineB = CCN(CC)c1ccc2c(-c3ccccc3C(=O)*)c3ccc(=[N+](CC)CC)cc-3oc2c1; X1 = COC(=O)/C=C/CC[C@H](N[*:1])C(=O)[*:2]; X2 = COC(=O)C=CCCC[C@H](N[*:1])C(=O)[*:2]; X3 = COC(=O)C=CC[C@H](N[*:1])C(=O)[*:2]; Nle = CCCC[C@H](N)C(=O)O; Orn = NCCC[C@H](N)C(=O)O; Dab = NCC[C@H](N)C(=O)O; Acryloyl = C=CC(=O)*; Ahx = NCCCCCC(=O)O

Target: T1, Thrombin-activated human FXIIIa (Homo sapiens, UniProt P00488)
T1 construct: purchased Zedira GmbH T070
T1 sequence (P00488 39-732 limits assumed): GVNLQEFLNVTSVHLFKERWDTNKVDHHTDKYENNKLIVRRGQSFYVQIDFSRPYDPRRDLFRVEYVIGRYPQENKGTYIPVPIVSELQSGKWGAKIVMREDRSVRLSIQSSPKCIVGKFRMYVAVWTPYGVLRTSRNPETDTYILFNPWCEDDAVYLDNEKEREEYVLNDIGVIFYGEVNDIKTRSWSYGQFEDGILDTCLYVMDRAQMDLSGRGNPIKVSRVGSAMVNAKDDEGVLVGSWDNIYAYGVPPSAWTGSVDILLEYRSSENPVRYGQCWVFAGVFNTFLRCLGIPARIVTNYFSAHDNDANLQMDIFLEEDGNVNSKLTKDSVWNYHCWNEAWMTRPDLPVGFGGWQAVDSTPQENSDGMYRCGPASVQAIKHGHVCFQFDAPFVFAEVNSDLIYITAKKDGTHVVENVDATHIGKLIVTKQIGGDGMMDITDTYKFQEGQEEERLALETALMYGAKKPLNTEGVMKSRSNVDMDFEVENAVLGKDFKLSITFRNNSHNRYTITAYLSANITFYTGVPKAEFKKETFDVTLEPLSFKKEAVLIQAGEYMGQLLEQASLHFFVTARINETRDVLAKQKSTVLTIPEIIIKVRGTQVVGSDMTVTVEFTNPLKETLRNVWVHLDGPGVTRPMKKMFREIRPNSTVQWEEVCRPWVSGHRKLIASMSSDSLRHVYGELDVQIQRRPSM
Assay: Fluorescence-quenched A101 isopeptidase assay of FXIIIa inhibition kinetics
Format: biochemical
Settings: for FXIIIa Inh. Mode: Rev = reversible, Irrev = irreversible, None = no inhibition detected up to 200 μM; for Selectivity: isozyme favoured, FXIIIa vs TG2, FXIIIa as the favoured isozyme; for selectivity for FXIIIa over TG2: from kinact/KI against FXIIIa and TG2
Description: All inhibitors synthesised herein were evaluated for inhibition against FXIIIa, using the fluorescence-quenched A101 isopeptidase assay, and against TG2, using the colorimetric AL5 transamidase assay. The assay substrates A101 and AL5 both present labile bonds that are cleaved by the activities of their corresponding transglutaminases, resulting in the release of a fluorophore or chromophore moiety, respectively. The rate of consumption of these assay substrates, indicated by increases in fluorescence or absorbance over time, can be detected for measuring enzyme activity. Assays were run in duplicate at constant reporter substrate concentration with varying concentrations of inhibitor. The type of inhibition was determined through visual inspection of the fluorescence-time curvature; termination of the enzymatic reaction with the substrate at a plateau lower than the no-inhibitor positive control is indicative of irreversible inhibition. On the other hand, convergence to a common plateau indicates reversible inhibition.
Irreversibility was tested further through substrate spike experiments. As shown in Supplementary Materials Figures S1–S3, an additional substrate was added to inhibited and uninhibited enzyme reactions after the completion of the positive control reaction. […] Analysis was carried out through corrected Dixon modelling in the case of reversible kinetics, to obtain Ki values (Figure 5B), and hyperbolic saturation modelling was used to obtain kinact and KI for inhibitors showing irreversibility (Figure 5E). For cases in which the tested inhibitor concentrations were not high enough to reach saturation, a linear regression provided an estimate of the inhibitor’s kinact/KI ratio (Figure 5D). Further details concerning data collection and analysis are provided in the Materials and Methods section.
A previously reported fluorescence-quenched isopeptidase assay using the commercially available substrate A101 (Zedira GmbH, Darmstadt, Germany) was employed for the determination of FXIIIa inhibition kinetics. All assays were performed at 37 °C on 96-well plates, with fluorescence (excitation at 313 nm, emission at 418 nm) measured continuously using a BioTek Synergy 4 plate reader. For each inhibitor, duplicate trials were run in parallel at 4 inhibitor concentrations, along with duplicate positive controls (no inhibitor) and negative controls (no enzyme and no inhibitor). First, 125 μL of aqueous buffer 1 (111 mM Tris, 16.7 mM CaCl2, 333 mM NaCl, pH 7.5) and 18 μL of aqueous buffer 2 (55.6 mM TCEP, 149 mM H-Gly-OMe, pH 7.5) were added to each well, along with 5 μL of A101 stock solution (4000 μM in DMSO). Next, the appropriate amount of the desired inhibitor, dissolved in DMSO, was added, in addition to the amount of distilled water necessary to reach a total volume of 180 μL in each well. Negative controls were diluted to a final volume of 200 μL. Thrombin-activated human FXIIIa (T070, Zedira GmbH, Darmstadt, Germany), stored at −80 °C in 20-μL aliquots (1 mg/mL enzyme) of storage buffer (50.0 mM Tris, 1.00 mM TCEP, 150 mM NaCl, pH 7.5) was warmed to room temperature and diluted to 0.0741 mg/mL through the addition of 250 μL of storage buffer. The diluted enzyme solution was then aliquoted into 10 separate PCR tubes. The assay plate and enzyme tubes were subsequently incubated at 37 °C for 10 min. After the completion of the incubation period, 20 μL of diluted FXIIIa solution was added from each PCR tube to all wells in the plate excluding the negative controls using a multi-channel pipette. This produced a final volume of 200 μL per well, with final reaction conditions of pH 7.5, 74.4 mM Tris, 10.4 mM CaCl2, 223 mM NaCl, 5.10 mM TCEP, 13.4 mM H-Gly-OMe, 100 μM A101, and 7.41 μg/mL (94 nM) FXIIIa. The range of inhibitor concentrations tested spanned from 1 to 200 μM, and the final DMSO concentration in the reaction mixture was kept below 10% v/v. […]

[1] = peptidic series, corrected Dixon plot, α = 13.5, read-out: FXIIIa Ki or KI: Ki of reversible inhibitors
[2] = small molecule series, reversible, Dixon plot, Interference = data afflicted by fluorescence interference
[3] = small molecule series, reversible, Dixon plot, Interference = data afflicted by fluorescence interference, read-out: FXIIIa Ki
[4] = dansyl and sulfonyl-naphthalene compounds, data afflicted by fluorescence interference and set aside, read-out: FXIIIa apparent Ki (interference)

In the case of C=CC(=O)NCC[C@H](NC(=O)[C@@H](CC(=O)O)NC(C)=O)C(=O)N[C@@H](CCCC)C(=O)N[C@@H](CCCC)C(=O)N[C@@H](CC(C)C)C(=O)N1CCC[C@H]1C(=O)N[C@@H](Cc1c[nH]c2ccccc12)C(=O)N1CCC[C@H]1C(=O)O [Compound 12, Ac-D-Asp-Dab(Acrylamide)-Nle-Nle-Leu-Pro-Trp-Pro-OH] (Ac-[dD][Dab](Acryloyl)[Nle][Nle]LPWP-OH), the “FXIIIa Inh. Mode” value is reported as “Rev”, the Selectivity is reported as “FXIIIa” and the Ki [1] is reported as 193 ± 20 µM.

For C=CC(=O)NCCC[C@H](NC(=O)[C@@H](CC(=O)O)NC(C)=O)C(=O)N[C@@H](CCCC)C(=O)N[C@@H](CCCC)C(=O)N[C@@H](CC(C)C)C(=O)N1CCC[C@H]1C(=O)N[C@@H](Cc1c[nH]c2ccccc12)C(=O)N1CCC[C@H]1C(=O)O [Compound 13] (Ac-[dD][Orn](Acryloyl)[Nle][Nle]LPWP-OH), the “FXIIIa Inh. Mode” value was “Rev”, the Selectivity was “FXIIIa” and the Ki [1] was 135 ± 16 µM.

For C=CC(=O)NCCCC[C@H](NC(=O)[C@@H](CC(=O)O)NC(C)=O)C(=O)N[C@@H](CCCC)C(=O)N[C@@H](CCCC)C(=O)N[C@@H](CC(C)C)C(=O)N1CCC[C@H]1C(=O)N[C@@H](Cc1c[nH]c2ccccc12)C(=O)N1CCC[C@H]1C(=O)O [Compound 14] (Ac-[dD]K(Acryloyl)[Nle][Nle]LPWP-OH), the “FXIIIa Inh. Mode” value was “Rev”, the Selectivity was “FXIIIa” and the Ki [1] was 125 ± 20 µM.

For CCCC[C@H](NC(=O)[C@H](CC=CC(=O)OC)NC(=O)[C@@H](CC(=O)O)NC(C)=O)C(=O)N[C@@H](CCCC)C(=O)N[C@@H](CC(C)C)C(=O)N1CCC[C@H]1C(=O)N[C@@H](Cc1c[nH]c2ccccc12)C(=O)N1CCC[C@H]1C(=O)O [Compound 45] (Ac-[dD][X3][Nle][Nle]LPWP-OH), the “FXIIIa Inh. Mode” value was “weak reversible inhibition and Rev”, the Selectivity was “FXIIIa” and the Ki [1] was 53 ± 12 µM.

For CCCC[C@H](NC(=O)[C@H](CCCC=CC(=O)OC)NC(=O)[C@@H](CC(=O)O)NC(C)=O)C(=O)N[C@@H](CCCC)C(=O)N[C@@H](CC(C)C)C(=O)N1CCC[C@H]1C(=O)N[C@@H](Cc1c[nH]c2ccccc12)C(=O)N1CCC[C@H]1C(=O)O [Compound 47] (Ac-[dD][X2][Nle][Nle]LPWP-OH), the “FXIIIa Inh. Mode” value was “reversible and highly potent reversible FXIIIa inhibition and Rev”, the Selectivity was “Irrev TG2” and the Ki [1] was 0.0941 ± 0.0105 µM.

C=CC(=O)NCC(NC(=O)CC(=O)O)C(=O)N1CCN(S(=O)(=O)c2cccc3c(N(C)C)cccc23)CC1 (centres unmarked) [Compound 71] was tested, and the “FXIIIa Ki” value [2] was “Interference *”.

C=CC(=O)NCC(NC(=O)CC(=O)O)C(=O)N1CCN(C(=O)c2cccc3ccccc23)CC1 (centres unmarked) [Compound 72] showed a Ki [3] of 249 ± 69.3 µM.

With C=CC(=O)NCC(NC(=O)C1(C(=O)OC)CC1)C(=O)N1CCN(S(=O)(=O)c2cccc3c(N(C)C)cccc23)CC1 (centres unmarked) [Compound 73] the “FXIIIa Ki” value [2] was “Interference *”.

With C=CC(=O)NCC(NC(=O)C1(C(=O)O)CC1)C(=O)N1CCN(S(=O)(=O)c2cccc3c(N(C)C)cccc23)CC1 [Compound 74, Acid-Cyclopropyl-L-Dap(Acryl)-Piperazine-Dansyl] the “FXIIIa Ki” value [2] was “Interference *”.

For C=CC(=O)NCC(NC(=O)CCC(=O)O)C(=O)N1CCN(S(=O)(=O)c2cccc3c(N(C)C)cccc23)CC1 [Compound 75, Succinyl-L-Dap(Acryl)-Piperazine-Dansyl], the “FXIIIa Ki” value [2] was “Interference *”.

C=CC(=O)NCC(NC(=O)CCC(=O)O)C(=O)N1CCN(S(=O)(=O)c2cccc3ccccc23)CC1 [Compound 76, Succinyl-L-Dap(Acryl)-Piperazine-Sulfonyl-Naphthalene] was tested, and the Ki [4] was 64.3 ± 5.1 µM and the “FXIIIa Ki” value [2] was “Interference *”.

C=CC(=O)NCC(NC(=O)CCC(=O)O)C(=O)N1CCN(C(=O)c2cccc3ccccc23)CC1 [Compound 77, Succinyl-L-Dap(Acryl)-Piperazine-Naphthoyl] was tested, and the Ki [3] was 69 ± 4.1 µM.

In the case of C=CC(=O)NCC(NS(=O)(=O)CC(=O)O)C(=O)N1CCN(S(=O)(=O)c2cccc3c(N(C)C)cccc23)CC1 (centres unmarked) [Compound 79], the Ki [4] is reported as 26.7 ± 1.3 µM and the “FXIIIa Ki” value [2] is reported as “Interference *”.

With C=CC(=O)NC(CNC(=O)CCC(=O)O)C(=O)N1CCN(C(=O)c2cccc3ccccc23)CC1 (centres unmarked) [Compound 84] the Ki [3] was 108 ± 19.1 µM.

In the case of COC(=O)C=CCCC(NC(=O)CCC(=O)O)C(=O)N1CCN(C(=O)c2cccc3ccccc23)CC1 (centres unmarked) [Compound 87], the Ki [3] is reported as 131 µM.

COC(=O)C=CCCC(NC(=O)c1ccccc1C(=O)O)C(=O)N1CCN(C(=O)c2cccc3ccccc23)CC1 (centres unmarked) [Compound 88] showed a Ki [3] of 265 ± 46.8 µM.

For CCCC[C@H](NC(=O)[C@H](CC/C=C/C(=O)OC)NC(=O)[C@@H](CC(=O)O)NC(=O)CCCCCNC(=O)[C@@H]1CCCN1C(=O)c1ccccc1-c1c2ccc(=[N+](CC)CC)cc-2oc2cc(N(CC)CC)ccc12)C(=O)N[C@@H](CCCC)C(=O)N[C@@H](CC(C)C)C(=O)N1CCC[C@H]1C(=O)N[C@@H](Cc1c[nH]c2ccccc12)C(=O)N1CCC[C@H]1C(=O)O [Compound 93] (RhodamineB-P[Ahx][dD][X1][Nle][Nle]LPWP-OH), the “selectivity for FXIIIa over TG2” value was “around 6.5 fold”, the “selectivity for FXIIIa over TG2” value (listed as KM93) was 6.5 fold and the kinact/KI (irreversible inhibitors, saturation fit or linear regression) was 2120 M⁻¹ s⁻¹.

“Ac-D-Asp-Dap(Acrylamide)-Nle-Nle-Leu-Pro-Trp-Pro-OH [Compound 11]” was tested, and the “FXIIIa Inh. Mode” value was “complete loss of inhibition; also recorded: no inhibition; also recorded: None *”.
